Data on three molecules can be found in paper PMC11876601 (Molecular Systems Biology, 2025).

For one assay, the target named is BCR. The settings on record: 5 cell line mix lysate, Kinobeads ε, ref Reinecke et al. (2023), cited from earlier work.
The next assay has as its system PRKAG1. Further details: method as in Reinecke et al. (2023). Conditions: PRKAG1, 5 cell line mix lysate, Kinobeads ε, ref Reinecke et al. (2023), cited from earlier work.
Another assay deals with TAOK2. Details: method as in Reinecke et al. (2023). Conditions: TAOK2, 5 cell line mix lysate, Kinobeads ε, ref Reinecke et al. (2023), cited from earlier work.
The subject of the next assay is BUB1. Details: method as in Reinecke et al. (2023). The settings on record: BUB1, 5 cell line mix lysate, Kinobeads ε, ref Reinecke et al. (2023), cited from earlier work.
The subject of another assay is NTRK1. Details: method as in Klaeger et al. (2017). Conditions: lysate 4 cell line mix (Colo205, K-562, MV-4-11, and SK-N-BE(2)), Kinobeads y, ref Klaeger et al. (2017); cited from earlier work.
A further assay deals with MAP3K5. Details: method as in Klaeger et al. (2017). Conditions: lysate 4 cell line mix (Colo205, K-562, MV-4-11, and SK-N-BE(2)), Kinobeads y, ref Klaeger et al. (2017); cited from earlier work.
A further assay concerns SIK3. Details: method as in Klaeger et al. (2017). The settings on record: lysate 4 cell line mix (Colo205, K-562, MV-4-11, and SK-N-BE(2)), Kinobeads y, ref Klaeger et al. (2017); cited from earlier work.
For the next assay, the system named is TBK1. Further details: method as in Klaeger et al. (2017). The settings on record: lysate 4 cell line mix (Colo205, K-562, MV-4-11, and SK-N-BE(2)), Kinobeads y, ref Klaeger et al. (2017); cited from earlier work.
Another assay deals with TGFBR2. Further details: method as in Klaeger et al. (2017). The settings on record: lysate 4 cell line mix (Colo205, K-562, MV-4-11, and SK-N-BE(2)), Kinobeads y, ref Klaeger et al. (2017); cited from earlier work.
A further assay deals with MAP4K2. Further details: method as in Klaeger et al. (2017). Conditions: MAP4K2, 4 cell line mix lysate, Kinobeads y, ref Klaeger et al. (2017); cited from earlier work.
A further assay concerns MAP4K5. Further details: method as in Klaeger et al. (2017). The settings on record: MAP4K5, 4 cell line mix lysate, Kinobeads y, ref Klaeger et al. (2017); cited from earlier work.
The next assay concerns p-sites in AsPC-1 cells. As to the kind of experiment: Phosphoproteomics 1 µM GEM vs. vehicle (4 h). The format is cell-based, human. The protocol:
Cell culture medium was replaced 24 h after seeding. […] For time point 0, AsPC-1 cells were treated with a vehicle and lysed immediately. The final DMSO concentration in all experiments was 0.2%.
Briefly, cells were washed twice with PBS and lysed in SDS lysis buffer (2% SDS in 40 mM Tris-HCl, pH 7.6), followed by sonication for 10 min (30 s on/30 s off) using a Bioruptor (Diagenode). For DNA hydrolysis, samples were boiled at 95 °C for 10 min and incubated with 2% trifluoroacetic acid (TFA) for 1 min, before the reaction was quenched using 4% N-methylmorpholine. Lysate was cleared by centrifugation at 11,000 × g for 5 min and protein concentration was determined using the Pierce BCA Protein Assay Kit (Thermo Scientific).
Using 70% ethanol, samples were then precipitated on beads, followed by washing thrice with 80% ethanol and once with 100% acetonitrile. Subsequently, proteins were reduced and alkylated using 10 mM TCEP, 50 mM chloroacetamide, and 2 mM CaCl2 in 100 mM EPPS/NaOH, pH 8.5 for 1 h at 37 °C, followed by tryptic digestion at 37 °C for 16 h. Peptides were acidified with 1% TFA and desalted on Chromabond HLB plates (30 µm particle size, 10 mg capacity, Machery-Nagel), using 0.1% TFA for equilibration and sample loading, and 0.1% TFA in 70% acetonitrile for peptide elution. Recovered peptides were freeze-dried by vacuum-centrifugation and stored at −20 °C.
Depending on the experiment, samples were either labeled with TMT-11plex (decryptM), TMT-10plex (non-decryptM, quadruplicates), or TMTpro reagent (time-series; all Thermo Scientific). Therefore, dried peptides were reconstituted in 15 µl 100 mM EPPS, pH 8.5 and each treatment condition was labeled with one channel of the respective TMT reagent (5 µl of 25 µg/µl reagent, Appendix Tables S4–S6). The reaction was incubated for 1 h at 23 °C and subsequently quenched with 0.4% hydroxylamine. Then, samples were pooled, acidified with 1% formic acid, and freeze-dried by vacuum-centrifugation. Labeled peptide pools were desalted on C18 Sep-Pak cartridges (37–55 µm particle size, 50 mg capacity, Waters), using 0.1% formic acid as equilibration solvent, and 0.1% formic acid in 60% acetonitrile was used as elution solvent. Eluted peptides were freeze-dried and stored at −20 °C until further use.
Basic reversed-phase (bRP) fractionation of peptides was performed on a Vanquish HPLC (Thermo Scientific). In short, dried peptides were reconstituted in 200 µl 25 mM ammonium bicarbonate, pH 8.0 and directly injected onto a Waters BEH130 XBridge C18 column (3.5 µm, 4.6 × 250 mm). […] Using an automated fraction collector, 96 fractions were collected between min 7 and 55 after injection. Fractions were acidified with 1% formic acid and pooled to 48 fractions, before they were freeze-dried and stored at −20 °C.
Immobilized metal ion affinity chromatography (IMAC) enrichment of phosphorylated peptides was performed on the Bravo automated liquid handling platform using AssayMAP Fe(III)-NTA cartridges (Agilent). In brief, the 48 dried peptide fractions were reconstituted in 0.1% TFA in 80% acetonitrile and further pooled to 12 fractions (200 µl final volume per well). The phosphopeptide enrichment protocol embedded in the Agilent AssayMAP Bravo Protein Sample Prep Workbench v2.0 software was run. Thereby, the cartridges were first primed with 150 μl 0.1% TFA in acetonitrile at 300 μl/min, and equilibrated with 150 μl 0.1% TFA in 80% acetonitrile at 10 μl/min. Then, pooled fractions were loaded at 5 µl/min and further washed three times with 150 μl 0.1% TFA in 80% acetonitrile at 50 μl/min. Enriched peptides were eluted with 60 μl 1% ammonium hydroxide at 5 μl/min.

Structures are written as SMILES. “And” between values parts separate entries of the source, which are not always exact repeats. Equal values may be shown once.

Regarding `COc1cc(N2CCC(N3CCN(C)CC3)CC2)ccc1Nc1ncc(Cl)c(Nc2ccccc2P(C)(C)=O)n1` [Brigatinib], the Kd on BCR (read-out: KDapp) was 504 nM; on PRKAG1 (read-out: KDapp), 354 nM; at TAOK2 (read-out: KDapp), 1830 nM; on BUB1 (read-out: KDapp) it was 6990 nM. Besides, the EC50 (as a rule, the midpoint of the concentration-response curve) in the assay on BCR was 1050 nM; in the assay on PRKAG1, 559 nM; in the assay with TAOK2 it was 3110 nM; with BUB1 it was 6990 nM. For the same molecule, the pKDapp on BCR is given as 6.30; at PRKAG1 it was 6.45; at TAOK2 it was 5.74; on BUB1, 5.16.
For `C[C@]12O[C@H](C[C@]1(O)CO)n1c3ccccc3c3c4c(c5c6ccccc6n2c5c31)CNC4=O` [Lestaurtinib], the EC50 in the assay on NTRK1 was 795 nM; in the assay with MAP3K5, 788 nM; in the assay with SIK3 it was 1040 nM; in the assay with TBK1 it was […]; in the assay with TGFBR2 it was […]; in the assay with MAP4K2 it was […]. Further, the EC50 in the assay with MAP4K5 is […].
Take `Nc1ccn([C@@H]2O[C@H](CO)[C@@H](O)C2(F)F)c(=O)n1` [GEM, Gemcitabine]: in the assay with p-sites in AsPC-1 cells (1 µM GEM vs. vehicle), the “increase of CHEK1-pS468 phosphorylation upon GEM” value was > 18 fold and 18 fold; the “increase of LRRC42-pS385 upon GEM” value is 4.8 fold and ~ 5 fold; the “increase of NSUN5-pS432 upon GEM” value amounted to 7 fold; the “increase of PNISR-pS706 upon GEM” value turned out to be 4.6 fold. Besides, in the assay with p-sites in AsPC-1 cells (1 µM GEM vs. vehicle), the “induction of HMGA1 pS9 by GEM” value is > 4 fold, the “induction of HMGA1 pS44 by GEM” value was > 4 fold, the “induction of PPM1G pS201 by GEM” value was > 4 fold and the “induction of TSEN34 pS136 by GEM” value is > 4 fold. Further, in the assay on p-sites in AsPC-1 cells (1,000 nM GEM vs. vehicle, n=4), the “GEM Regulation, PPM1G S201” value is listed as “up”; the “GEM Regulation, RALY S176” value was “up”; the “GEM_log2FC, PPM1G S201” value worked out at 2.66 log2; the “GEM_log2FC, RALY S176” value stood at 3.08 log2.
